From paper PMC8539097, “Structural Insight into a Yeast Maltase—The BaAG2 from Blastobotrys adeninivorans with Transglycosylating Activity” (Journal of Fungi, 2021) come the findings set out here.

This test has as its target T1, BaAG2 (Blastobotrys adeninivorans, UniProt Z9CO09ION3).
T1 construct: wild type, recombinant from plasmid pURI3-BaAG2Cter in E. coli BL21(DE3), Ni-IMAC purified (plus SEC for crystals); domains span residues 1-581; most likely monomer
T1 sequence (Z9CO09ION3 1-580): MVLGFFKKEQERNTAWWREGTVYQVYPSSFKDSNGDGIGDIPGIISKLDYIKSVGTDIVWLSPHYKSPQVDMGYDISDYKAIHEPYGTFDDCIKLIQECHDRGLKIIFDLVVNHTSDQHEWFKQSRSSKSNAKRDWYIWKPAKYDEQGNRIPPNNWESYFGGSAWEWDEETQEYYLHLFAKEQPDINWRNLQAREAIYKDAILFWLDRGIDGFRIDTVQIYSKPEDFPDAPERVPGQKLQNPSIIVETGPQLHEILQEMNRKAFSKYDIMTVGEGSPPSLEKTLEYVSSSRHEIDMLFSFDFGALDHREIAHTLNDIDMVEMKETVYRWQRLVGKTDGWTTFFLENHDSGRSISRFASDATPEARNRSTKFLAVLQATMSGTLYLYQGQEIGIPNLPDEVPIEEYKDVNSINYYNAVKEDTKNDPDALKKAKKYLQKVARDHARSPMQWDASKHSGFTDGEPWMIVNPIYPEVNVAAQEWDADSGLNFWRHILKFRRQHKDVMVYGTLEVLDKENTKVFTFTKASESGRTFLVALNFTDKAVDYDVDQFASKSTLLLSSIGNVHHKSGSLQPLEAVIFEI
Kind of test: X-ray crystallography, crystal soaking, […] Å. Type of test: binding. Conditions: pH 5.5, 100 mM glucose soak; active site, subsite -1.

In the case of `OC[C@H]1OC(O)[C@H](O)[C@@H](O)[C@@H]1O` (stereo partly drawn) [D-glucose], the “X-ray crystallography, crystal soaking, 2.13 Å” value was “codes 7P01 (BaAG2-acarbose) and 7P07 (BaAG2-glucose)”.
